In patent US12144864B2, “Tubulysins and protein-tubulysin conjugates” (Regeneron Pharmaceuticals, Inc., priority 2018, dated 2024):
Like-named read-outs stand apart in the source and are kept apart here.

Assays:
T47D cells = assay: Cell-based killing assay of payloads (CellTiter-Glo), T47D cells; design: species or system human; conditions: 5-day incubation; for IC50: Homo sapiens, T47D, 120 h; for T47D % Kill: at maximum concentration tested
Procedure: (§1) To test the ability of the disclosed tubulysin payloads to kill human cell lines, an in vitro cytotoxicity assay was performed. In vitro cytotoxicity of the disclosed payloads, as well as reference compounds, were evaluated using the CellTiter-Glo Assay Kit (Promega, Cat #G7573), in which the quantity of ATP present is used to determine the number of viable cells in culture. For the assay, C4-2, HEK293, or T47D cells were seeded at 4000 cells/well on Nunclon white 96-well plates in complete growth medium (DME high glucose:Ham's F12 at 4:1, 10% FBS, 100 units/ml Penicillin, 100 ug/ml streptomycin, 53 ug/ml glutatmine, 10 ug/ml insulin, 220 ng/ml biotin, 12.5 pg/ml T3, 12.5 ug/ml Adenine, 4 ug/ml transferrin for C42 cells; DME high glucose, 10% FBS, 100 units/ml Penicillin, 100 ug/ml streptomycin, 53 ug/ml glutatmine for HEK293; RPMI, 10% FBS, 100 units/ml Penicillin, 100 ug/ml streptomycin, 53 ug/ml glutatmine, 10 ug/ml insulin, 10 mM HEPEs, 200 nM Sodium Pyruvate for T47D cells) and grown overnight at 37° C. in 5% CO2. For cell viability curves, 1:3 serially diluted payloads were added to the cells at final concentrations ranging from 100 nM to […], including a no treatment control group, and were then incubated for 5 days. After the 5-day incubation, cells were incubated at room temperature with 100 μL of CellTiter-Glo reagents for 10 minutes. Relative luminescence units (RLU) were determined on a Victor plate reader (PerkinElmer). The IC50 values were determined from a four-parameter logistic equation over a 10-point response curve (GraphPad Prism). All IC50 values are expressed in molar (M) concentration. The percent cell killing (% kill) at the maximum concentration tested was estimated from the following formula (100−% viable cells). Averages±standard deviation (SD) are included where replicate experiments were performed.

C4-2 cells = assay: Cell-based killing assay of payloads (CellTiter-Glo), C4-2 cells; design: species or system human; conditions: 5-day incubation; for IC50: Homo sapiens, C4-2, 120 h, average ± SD where replicates; for C4-2 % Kill: at maximum concentration tested (100 − % viable cells)
Summary of the method: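 Viability readout is CellTiter-Glo luminescence after a 5-day exposure to 10-point, threefold-diluted payloads spanning 100 nM–[…], following overnight attachment of 4000 cells/well. Four-parameter logistic fit gives IC50 in M; % kill taken at highest concentration tested.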

HCT15 cells = assay: cells; assay type: cell-based, human; conditions: HCT15 cells; for HCT-15 + verapamil % Kill / HCT-15 % Kill: maximum % cell killing
Summary of the method: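 Five-day exposure of 1000 HCT15 cells/well to threefold payload dilutions, run both plus and minus verapamil (5 ug/mL) in RPMI with 10% FBS. ATP luminescence (CellTiter-Glo) gives viability; four-parameter logistic fit of 10 points yields IC50, and 100 − % viable at highest dose gives % kill.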

HEK293 cells = assay: Cell-based killing assay of payloads (CellTiter-Glo), HEK293 cells; design: species or system human; conditions: 5-day incubation; for IC50: Homo sapiens, HEK293, 120 h; for HEK293 % Kill: at maximum concentration tested
Procedure: as §1

HL60/MX2 cells = assay: Cytotoxicity in panel of MDR cell lines, HL60/MX2 (72 h and 144 h); assay type: cell-based, human; conditions: for IC50: Homo sapiens
Summary of the method: (§2)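 Cells were seeded at 1000 per well and grown overnight, then exposed to 1:3 serially diluted payloads for 72 h and 144 h. CellTiter-Glo reagent was added for 10 min at room temperature, and luminescence was read. IC50 values came from a four-parameter logistic fit.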

HCT-15 cells = assay: Cytotoxicity in panel of MDR cell lines, HCT-15 (72 h and 144 h); assay type: cell-based, human; conditions: for IC50: Homo sapiens
Summary of the method: as §2

MES-SA/MX2 cells = assay: Cytotoxicity in panel of MDR cell lines, MES-SA/MX2 (72 h and 144 h); assay type: cell-based, human; conditions: for IC50: Homo sapiens
Summary of the method: as §2

H69AR cells = assay: Cytotoxicity in panel of MDR cell lines, H69AR (72 h and 144 h); assay type: cell-based, human; conditions: for IC50: Homo sapiens
Summary of the method: as §2

[1] = with 5 ug/mL Verapamil, read-out: HCT-15 + verapamil IC50
[2] = Homo sapiens, HCT-15, without Verapamil, read-out: HCT-15 IC50
[3] = 72 h incubation, read-out: HL60/MX2 IC50 72 h
[4] = 144 h incubation, read-out: HL60/MX2 IC50 144 h
[5] = 72 h incubation, read-out: HCT-15 IC50 72 h
[6] = 144 h incubation, read-out: HCT-15 IC50 144 h
[7] = 72 h incubation, read-out: MES-SA/MX2 IC50 72 h
[8] = 144 h incubation, read-out: MES-SA/MX2 IC50 144 h
[9] = 72 h incubation, read-out: H69AR IC50 72 h
[10] = 144 h incubation, read-out: H69AR IC50 144 h

Compound | IC50 (T47D cells) | T47D % Kill (T47D cells) | IC50 (C4-2 cells) | C4-2 % Kill (C4-2 cells) | HCT-15 + verapamil % Kill (HCT15 cells; with 5 ug/mL Verapamil) | IC50 (HCT15 cells; [1]) | HCT-15 % Kill (HCT15 cells; without Verapamil) | IC50 (HCT15 cells; [2]) | IC50 (HEK293 cells) | HEK293 % Kill (HEK293 cells) | also measured
CC[C@H](C)[C@H](NC(=O)[C@H]1CCCCN1C)C(=O)N(CCCCc1c[nH]nn1)[C@H](C[C@@H](OC(C)=O)c1nc(C(=O)N[C@@H](Cc2ccc(N)cc2)CC(C)(C)C(=O)O)cs1)C(C)C [IVj, (S)-4-(2-((1R,3R)-3-((2S,3S)—N-(4-(1H-1,2,3-triazol-5-yl)butyl)-3-methyl-2-((R)-1-methylpiperidine-2-carboxamido)pentanamido)-1-acetoxy-4-methylpentyl)thiazole-4-carboxamido)-5-(4-aminophenyl)-2,2-dimethylpentanoic acid] | 17.7 nM | 79.9% | 7.16 nM | 94.5% | 98.4% | 5.56 nM | 96.4% | 7.8 nM | 17.6 nM | 75.5% | –
CCCCCCN(C(=O)[C@@H](NC(=O)[C@H]1CCCCN1C)[C@@H](C)CC)[C@H](C[C@@H](OC(C)=O)c1nc(C(=O)N[C@@H](Cc2ccc(N)c(F)c2)CC(C)(C)C(=O)O)cs1)C(C)C [IVvB, 4-({2-[(1R,3R)-1-(Acetyloxy)-3-[(2S,3S)—N-hexyl-3-methyl-2-{[(2R)-1-methylpiperidin-2-yl]formamido}pentanamido]-4-methylpentyl]-1,3-thiazol-4-yl}formamido)-5-(4-amino-3-fluorophenyl)-2,2-dimethylpentanoic acid] | – | – | 0.0215 nM | 94.6% | 97.7% | 0.015 nM | 97.3% | 0.025 nM | – | – | HL60/MX2 % Kill 72 h (HL60/MX2 cells; 72 h incubation): 98.2%; HL60/MX2 % Kill 144 h (HL60/MX2 cells; 144 h incubation): 99.8%; IC50 (HL60/MX2 cells; [3]): < 0.015 nM; IC50 (HL60/MX2 cells; [4]): < 0.015 nM; HCT-15 % Kill 72 h (HCT-15 cells; 72 h incubation): 97.7%; HCT-15 % Kill 144 h (HCT-15 cells; 144 h incubation): 99.6%; IC50 (HCT-15 cells; [5]): < 0.015 nM; IC50 (HCT-15 cells; [6]): 0.0228 nM; MES-SA/MX2 % Kill 72 h (MES-SA/MX2 cells; 72 h incubation): 99.1%; MES-SA/MX2 % Kill 144 h (MES-SA/MX2 cells; 144 h incubation): 99.9%; IC50 (MES-SA/MX2 cells; [7]): 0.0456 nM; IC50 (MES-SA/MX2 cells; [8]): 0.0658 nM; H69AR % Kill 72 h (H69AR cells; 72 h incubation): 96.9%; H69AR % Kill 144 h (H69AR cells; 144 h incubation): 99.1%; IC50 (H69AR cells; [9]): 0.0599 nM; IC50 (H69AR cells; [10]): 0.158 nM
CCCCCCON(C(=O)[C@@H](NC(=O)[C@H]1CCCCN1C)[C@@H](C)CC)[C@H](C[C@@H](OC(=O)NCC)c1nc(C(=O)N[C@@H](Cc2ccc(O)cc2)C[C@H](C)C(=O)O)cs1)C(C)C [VIb, (2S,4R)-5-(4-hydroxyphenyl)-4-(2-((6R,8R)-8-isopropyl-9-((2S,3S)-3-methyl-2-((R)-1-methylpiperidine-2-carboxamido)pentanoyl)-4-oxo-5,10-dioxa-3,9-diazahexadecan-6-yl)thiazole-4-carboxamido)-2-methylpentanoic acid] | 13.6 nM | 76.2% | 12 nM | 96.5% | 97.8% | 2.88 nM | 54.7% | > 50 nM | 20.3 nM | 75.4% | –
CCCCCCON(C(=O)[C@@H](NC(=O)[C@H]1CCCCN1C)[C@@H](C)CC)[C@H](C[C@@H](OC(=O)NCCCC)c1nc(C(=O)N[C@@H](Cc2ccc(O)cc2)C[C@H](C)C(=O)O)cs1)C(C)C [VId, (2S,4R)-5-(4-Hydroxyphenyl)-4-(2-((8R,10R)-10-isopropyl-11-((2S,3S)-3-methyl-2-((R)-1-methylpiperidine-2-carboxamido)pentanoyl)-6-oxo-7,12-dioxa-5,11-diazaoctadecan-8-yl)thiazole-4-carboxamido)-2-methylpentanoic acid] | 2.51 nM | 68.4% | 2.4 nM | 95.5 ± 2.6% | 99% | 0.482 nM | 78.7% | > 30 nM | 5.26 nM | 78.5% | –
CCCCCCNC(=O)O[C@H](C[C@H](C(C)C)N(OCCCCCC)C(=O)[C@@H](NC(=O)[C@H]1CCCCN1C)[C@@H](C)CC)c1nc(C(=O)N[C@@H](Cc2ccc(O)cc2)C[C@H](C)C(=O)O)cs1 [VIe, (2S,4R)-5-(4-Hydroxyphenyl)-4-(2-((9R,11R)-9-isopropyl-8-((2S,3S)-3-methyl-2-((R)-1-methylpiperidine-2-carboxamido)pentanoyl)-13-oxo-7,12-dioxa-8,14-diazaicosan-11-yl)thiazole-4-carboxamido)-2-methylpentanoic acid] | 2.27 nM | 72.7% | 8.22 nM | 94.4 ± 0.2% | 98.8% | 0.295 nM | 36.6% | > 100 nM | 4.77 nM | 76.7% | –
CCCCCON(C(=O)[C@@H](NC(=O)[C@H]1CCCCN1C)[C@@H](C)CC)[C@H](C[C@@H](OC(=O)NC)c1nc(C(=O)N[C@@H](Cc2ccc(N)cc2)CC(C)(C)C(=O)O)cs1)C(C)C [VIh, (S)-5-(4-Aminophenyl)-4-(2-((5R,7R)-7-isopropyl-8-((2S,3S)-3-methyl-2-((R)-1-methylpiperidine-2-carboxamido)pentanoyl)-3-oxo-4,9-dioxa-2,8-diazatetradecan-5-yl)thiazole-4-carboxamido)-2,2-dimethylpentanoic acid] | – | – | 0.159 nM | 93.9% | 97.8% | 0.0716 nM | 99% | 0.263 nM | – | – | HL60/MX2 % Kill 72 h (HL60/MX2 cells; 72 h incubation): 97.6%; HL60/MX2 % Kill 144 h (HL60/MX2 cells; 144 h incubation): 99.9%; IC50 (HL60/MX2 cells; [3]): 0.0391 nM; IC50 (HL60/MX2 cells; [4]): < 0.015 nM; HCT-15 % Kill 72 h (HCT-15 cells; 72 h incubation): 97.9%; HCT-15 % Kill 144 h (HCT-15 cells; 144 h incubation): 99.7%; IC50 (HCT-15 cells; [5]): 0.366 nM; IC50 (HCT-15 cells; [6]): 0.515 nM; MES-SA/MX2 % Kill 72 h (MES-SA/MX2 cells; 72 h incubation): 98.5%; MES-SA/MX2 % Kill 144 h (MES-SA/MX2 cells; 144 h incubation): 99.8%; IC50 (MES-SA/MX2 cells; [7]): 1.26 nM; IC50 (MES-SA/MX2 cells; [8]): 2.72 nM; H69AR % Kill 72 h (H69AR cells; 72 h incubation): 96.3%; H69AR % Kill 144 h (H69AR cells; 144 h incubation): 99.1%; IC50 (H69AR cells; [9]): 1.07 nM; IC50 (H69AR cells; [10]): 1.73 nM
CC[C@H](C)[C@H](NC(=O)[C@H]1CCCCN1C)C(=O)N(OCCCO)[C@H](C[C@@H](OC(C)=O)c1nc(C(=O)N[C@@H](Cc2ccc(O)cc2)C[C@H](C)C(=O)O)cs1)C(C)C [Vk, (2S,4R)-4-(2-((1R,3R)-1-Acetoxy-3-((2S,3S)—N-(3-hydroxypropoxy)-3-methyl-2-((R)-1-methylpiperidine-2-carboxamido)pentanamido)-4-methylpentyl)thiazole-4-carboxamido)-5-(4-hydroxyphenyl)-2-methylpentanoic acid] | > 100 nM | – | – | – | 83% | 42.7 nM | 41.5% | ≥ 100 nM | > 100 nM | – | –
